Data on five compounds can be found in DBAASP.

What all share (assay): ≥ marks a high value that may be exact or a test limit, other limits are often not marked, values filed in µg/mL are converted to µM
The test system of assay [1] is Enterococcus faecalis CGMCC 1.125.
The subject of assay [2] is Micrococcus luteus CGMCC 1.193.
Assay [3] concerns Staphylococcus aureus ATCC 6538P.
Assay [4] concerns Lactiplantibacillus plantarum CGMCC 1.556.
In assay [5] the test system is Lactococcus lactis ATCC 15577.
The subject of assay [6] is Salmonella sp. CGMCC 1.1552.
For assay [7], the system named is Lactiplantibacillus plantarum CGMCC 1.551.
Assay [8] deals with Lactiplantibacillus plantarum CGMCC 1.124.
Assay [9] has as its system Bacillus subtilis CGMCC 1.1627.
The test system of assay [10] is Staphylococcus aureus CGMCC 1.128.
The test system of assay [11] is Shigella flexneri CGMCC 1.1868.
Assay [12] has as its system Lactiplantibacillus plantarum CGMCC 1.511.
For assay [13], the system named is Shigella dysenteriae ATCC 9753.
In assay [14] the test system is Escherichia coli JM109.
Assay [15] has as its system Escherichia coli CGMCC 1.1580.
For assay [16], the system named is Pseudomonas aeruginosa CGMCC 1.647.
Assay [17] has as its system Staphylococcus aureus CGMCC 1.2386.
The test system of assay [18] is Pseudomonas putida CGMCC 1.645.
Assay [19] concerns Staphylococcus aureus CGMCC 1.879.
For assay [20], the system named is Lactiplantibacillus plantarum CGMCC 1.11.
The test system of assay [21] is Listeria monocytogenes ATCC 7648.
Assay [22] concerns Pseudomonas aeruginosa 4677.
The test system of assay [23] is Klebsiella pneumoniae 68228.
Assay [24] relates to Escherichia coli 5580.
Assay [25] concerns Pseudomonas aeruginosa 5106.
Assay [26] has as its system Escherichia coli 170.
In assay [27] the test system is Streptococcus pneumoniae ATCC 49619.
Assay [28] concerns Klebsiella pneumoniae 1625.
For assay [29], the system named is Klebsiella pneumoniae 913.
Assay [30] has as its system Enterobacter cloacae 6266.
For assay [31], the system named is Pseudomonas aeruginosa 3599.
Assay [32] has as its system Salmonella typhimurium.
Assay [33] relates to Acinetobacter baumannii.
For assay [34], the system named is Enterobacter cloacae 2524.
For assay [35], the system named is Escherichia coli ATCC 25922.
The test system of assay [36] is Pseudomonas aeruginosa U-31.
Assay [37] deals with Escherichia coli NIHJ JC-2.
Assay [38] has as its system Staphylococcus aureus FDA 209P.
Assay [39] relates to Bacillus subtilis PCI 219.
The test system of assay [40] is Enterobacter cloacae 6780.
Assay [41] relates to Carnobacterium mobile.
Assay [42] deals with Fusarium oxysporum.

In brackets after ≈: the same amount, converted by molar mass.

As usually defined, the MIC is the lowest concentration found to suppress growth. `CC[C@H](C)[C@H](NC(=O)[C@H](CC(C)C)NC(=O)[C@H](Cc1ccccc1)NC(=O)[C@H](CCC(N)=O)NC(=O)[C@H](CCC(N)=O)NC(=O)[C@H](CCCCN)NC(=O)[C@@H](NC(=O)[C@@H](N)CCCCN)[C@@H](C)O)C(=O)N[C@@H](CCCCN)C(=O)N[C@@H](C)C(=O)N[C@@H](CCC(N)=O)C(=O)N[C@H](C(=O)N[C@@H](CCC(N)=O)C(=O)N[C@@H](CC(C)C)C(=O)N[C@@H](Cc1ccccc1)C(=O)N[C@@H](CCCCN)C(=O)N[C@H](C(=O)N[C@@H](Cc1ccccc1)C(=O)NCC(=O)N[C@@H](Cc1ccc(O)cc1)C(=O)N[C@H](C(=O)N[C@@H](CC(C)C)C(=O)O)[C@@H](C)O)C(C)C)[C@@H](C)O` [KTKQQFLIKAQTQLFKVFGYTL]: the MIC in [1] came to 0.146 µM (≈ 0.384 µg/mL); in assay [2], 0.153 µM (≈ 0.403 µg/mL); in [3], 0.178 µM (≈ 0.468 µg/mL); in [4] it was 0.682 µM (≈ 1.79 µg/mL); in assay [5], 1.23 µM (≈ 3.22 µg/mL); in assay [6], 0.136 µM (≈ 0.358 µg/mL). Moreover, the MIC came to 0.722 µM (≈ 1.9 µg/mL) in [7]; 0.242 µM (≈ 0.637 µg/mL) in assay [8]; 0.121 µM (≈ 0.318 µg/mL) in [9]; 0.218 µM (≈ 0.574 µg/mL) in assay [10]; 0.135 µM (≈ 0.355 µg/mL) in [11]; 1.35 µM (≈ 3.56 µg/mL) in assay [12]. In addition, the MIC in assay [13] was found to be 0.185 µM (≈ 0.487 µg/mL); in assay [14], 0.135 µM (≈ 0.355 µg/mL); in [15], 0.235 µM (≈ 0.618 µg/mL); in assay [16], 0.144 µM (≈ 0.379 µg/mL); in [17], 0.21 µM (≈ 0.553 µg/mL); in assay [18], 0.075 µM (≈ 0.197 µg/mL). For the same compound, the MIC stood at 0.132 µM (≈ 0.347 µg/mL) in [19], 0.885 µM (≈ 2.33 µg/mL) in assay [20] and 0.112 µM (≈ 0.295 µg/mL) in assay [21].
In the case of `CC[C@H](C)[C@H](NC(=O)CN)C(=O)N[C@@H](CC(C)C)C(=O)N[C@@H](CCCCN)C(=O)N[C@H](C(=O)N[C@H](C(=O)N[C@@H](CCCCN)C(=O)N[C@@H](CO)C(=O)N[C@H](C(=O)N[C@@H](C)C(=O)N[C@@H](CO)C(=O)N[C@@H](CCCCN)C(=O)N[C@H](C(=O)N[C@@H](C)C(=O)N[C@@H](CC(N)=O)C(=O)N[C@H](C(=O)N[C@H](C(=O)N[C@@H](CCC(N)=O)C(=O)N[C@@H](CCCCN)C(=O)N[C@@H](CC(C)C)C(=O)N[C@@H](CCCCN)C(=O)N[C@@H](CCCN=C(N)N)C(=O)N[C@@H](CCCCN)C(=O)N[C@@H](C)C(=O)N[C@@H](CCCCN)C(=O)N[C@@H](CC(N)=O)C(=O)N[C@@H](C)C(=O)N[C@H](C(=O)N[C@@H](C)C(=O)O)C(C)C)C(C)C)[C@@H](C)O)C(C)C)[C@@H](C)CC)[C@@H](C)CC)[C@@H](C)O` [GILKTIKSIASKVANTVQKLKRKAKNAVA], the MIC is 25 µM (≈ 77 µg/mL) in assay [22]; 6.2 µM (≈ 19.1 µg/mL) in [23]; 1.6 µM (≈ 4.93 µg/mL) in [24]; 12 µM (≈ 37 µg/mL) in [25]; 3.1 µM (≈ 9.55 µg/mL) in assay [26]; 25 µM (≈ 77 µg/mL) in assay [27]. Further, the MIC in assay [28] is 1.6 µM (≈ 4.93 µg/mL); in assay [29], 3.1 µM (≈ 9.55 µg/mL); in assay [30], 3.1 µM (≈ 9.55 µg/mL); in [31], at least 50 µM; in assay [32], 3.15 µM (≈ 9.7 µg/mL); in assay [33], 3.1 µM (≈ 9.55 µg/mL). Also, the MIC was 6.2 µM (≈ 19.1 µg/mL) in [34] and 1.6 µM (≈ 4.93 µg/mL) in [35].
As to `CC(C)C[C@H](NC(=O)[C@H](CCCCN)NC(=O)[C@H](CCCCN)NC(=O)[C@H](CC(C)C)NC(=O)[C@H](CC(C)C)NC(=O)[C@H](CCCCN)NC(=O)[C@H](CCCCN)NC(=O)[C@H](Cc1c[nH]c2ccccc12)NC(=O)[C@H](CCCCN)NC(=O)[C@H](CCCCN)NC(=O)[C@H](CC(C)C)NC(=O)[C@H](CC(C)C)NC(=O)[C@H](CCCCN)NC(=O)[C@H](CCCCN)NC(=O)[C@H](CC(C)C)NC(=O)[C@H](CCCCN)NC(=O)[C@@H](N)CCCCN)C(=O)N[C@@H](CCCCN)C(=O)O` [KKLKKLLKKWKKLLKKLK], the MIC in [36], in assay [37], in assay [38] and in assay [39] was at least 43.6 µM in each case.
Turning to `CC(C)C[C@H](NC(=O)[C@H](CCCCN)NC(=O)[C@H](CCC(N)=O)NC(=O)[C@@H](NC(=O)[C@@H](NC(=O)[C@H](CC(N)=O)NC(=O)[C@H](C)NC(=O)[C@@H](NC(=O)[C@@H](N)CCCCN)C(C)C)[C@@H](C)O)C(C)C)C(=O)N[C@@H](CCCCN)C(=O)N[C@@H](CCCN=C(N)N)C(=O)N[C@@H](CCCCN)C(=O)N[C@@H](C)C(=O)N[C@@H](CCCCN)C(=O)N[C@@H](CC(N)=O)C(=O)N[C@@H](C)C(=O)N[C@H](C(=O)O)C(C)C` [KVANTVQKLKRKAKNAV], the MIC was at least 50 µM in assay [40]; at least 50 µM in [22]; at least 50 µM in [26]; at least 50 µM in assay [29]; at least 50 µM in [33]; 25 µM (≈ 47.4 µg/mL) in assay [34]. Moreover, in [35], the MIC is above 50 µM.
Take `CSCC[C@H](N)C(=O)N[C@@H](C)C(=O)N[C@@H](CO)C(=O)N[C@@H](CCCN=C(N)N)C(=O)N[C@@H](C)C(=O)N[C@@H](C)C(=O)N[C@@H](CCCN=C(N)N)C(=O)N[C@@H](CC(C)C)C(=O)N[C@@H](C)C(=O)N[C@@H](C)C(=O)N[C@@H](CCCN=C(N)N)C(=O)N[C@@H](CC(C)C)C(=O)N[C@@H](C)C(=O)N[C@@H](CCCN=C(N)N)C(=O)N[C@@H](CC(C)C)C(=O)N[C@@H](C)C(=O)N[C@@H](CC(C)C)C(=O)N[C@@H](CCCN=C(N)N)C(=O)N[C@@H](C)C(=O)N[C@@H](CC(C)C)C(=O)O` [MASRAARLAARLARLALRAL]: the figures for the MIC in [41] and in [42] were 0.0025 µM (≈ 0.00538 µg/mL) and 0.1 µM (≈ 0.215 µg/mL), respectively.
